{
  "source": "paper PMC6449406",
  "about": "“Classification of the human phox homology (PX) domains based on their phosphoinositide binding specificities” (Nature Communications, 2019)",
  "test_in_all_cases": "liposome pelleting",
  "assay_type_in_all_cases": "binding",
  "details_in_all_cases": "10 mol% lipid in POPC/POPE liposomes, 20 µM protein, pH 7.2, 125 mM NaCl",
  "key": {"[1]": {"molecular_target": "T1, SNX27 (Homo sapiens, UniProt Q96L92)", "T1 construct": "PX domain only, N-terminal GST removed by thrombin, E. coli"}, "[2]": {"molecular_target": "T2, SNX7 (Homo sapiens, UniProt Q9UNH6)", "T2 construct": "PX domain only, N-terminal GST removed by thrombin, E. coli", "T2 sequence (Q9UNH6 30-151 limits assumed)": "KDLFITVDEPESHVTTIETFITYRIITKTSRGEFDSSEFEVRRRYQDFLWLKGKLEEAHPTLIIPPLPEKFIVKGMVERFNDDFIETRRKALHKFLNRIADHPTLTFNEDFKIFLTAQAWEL"}, "[3]": {"molecular_target": "T3, SNX17 (Homo sapiens, UniProt Q15036)", "T3 construct": "PX domain only, N-terminal GST removed by thrombin, E. coli", "T3 sequence (Q15036 1-109 limits assumed)": "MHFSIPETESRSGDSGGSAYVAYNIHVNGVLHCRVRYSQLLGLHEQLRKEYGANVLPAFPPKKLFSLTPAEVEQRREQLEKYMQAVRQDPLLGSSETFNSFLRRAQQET"}, "[4]": {"molecular_target": "T4, SNX16 (Homo sapiens, UniProt P57768)", "T4 construct": "PX domain only, N-terminal GST removed by thrombin, E. coli", "T4 sequence (P57768 105-218 limits assumed)": "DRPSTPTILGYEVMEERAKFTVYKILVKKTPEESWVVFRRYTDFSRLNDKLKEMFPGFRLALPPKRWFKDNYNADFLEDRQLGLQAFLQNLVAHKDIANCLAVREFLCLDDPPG"}, "[5]": {"molecular_target": "T5, SNX3 (Homo sapiens, UniProt O60493)", "T5 construct": "PX domain only, N-terminal GST removed by thrombin, E. coli", "T5 sequence (O60493 27-151 limits assumed)": "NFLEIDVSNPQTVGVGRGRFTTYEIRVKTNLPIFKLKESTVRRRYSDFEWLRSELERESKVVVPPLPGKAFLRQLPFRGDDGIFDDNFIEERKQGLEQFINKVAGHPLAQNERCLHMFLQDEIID"}, "[6]": {"molecular_target": "T6, PXK (Homo sapiens, UniProt Q7Z7A4)", "T6 construct": "PX domain only, N-terminal GST removed by thrombin, E. coli", "T6 sequence (Q7Z7A4 14-126 limits assumed)": "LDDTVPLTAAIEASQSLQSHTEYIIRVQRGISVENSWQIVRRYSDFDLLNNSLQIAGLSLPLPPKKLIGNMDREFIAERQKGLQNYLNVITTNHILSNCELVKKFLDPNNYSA"}, "[7]": {"molecular_target": "T7, SNX19 (Homo sapiens, UniProt Q92543)", "T7 construct": "a GST-tagged form was also made), E. coli", "T7 sequence (Q92543 533-663 limits assumed)": "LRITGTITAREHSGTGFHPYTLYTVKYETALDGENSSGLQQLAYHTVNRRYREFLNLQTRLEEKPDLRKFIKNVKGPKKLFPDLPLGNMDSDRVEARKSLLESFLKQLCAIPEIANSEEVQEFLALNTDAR"}, "[8]": {"molecular_target": "T8, p40phox (Homo sapiens, UniProt Q15080)", "T8 construct": "gene NCF4; PX domain only, N-terminal GST removed by thrombin, E. coli", "T8 sequence (Q15080 19-140 limits assumed)": "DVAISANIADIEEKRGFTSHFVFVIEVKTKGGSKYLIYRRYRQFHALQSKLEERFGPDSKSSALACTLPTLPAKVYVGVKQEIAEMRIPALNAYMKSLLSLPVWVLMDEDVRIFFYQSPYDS"}},
  "data": [
    {"smiles": "CCCCCCCC(=O)OC[C@H](COP(=O)(O)O[C@@H]1[C@H](O)[C@H](OP(=O)(O)O)[C@@H](O)[C@H](O)[C@H]1O)OC(=O)CCCCCCC", "note": "[PtdIns3P, 1,2-dioctanoyl-sn-glycero-3-(phosphoinositol-3-phosphate)]", "values": [
      {"measurement": "liposome pelleting", "setting": "[1]", "value": "exclusive interaction with liposomes containing PtdIns3P (SNX3, SNX7, SNX19, SNX17, SNX27"},
      {"measurement": "liposome pelleting", "setting": "[2]", "value": "exclusive interaction with liposomes containing PtdIns3P (SNX3, SNX7"},
      {"measurement": "liposome pelleting", "setting": "[3]", "value": "exclusive interaction with liposomes containing PtdIns3P (SNX3, SNX7, SNX19, SNX17"},
      {"measurement": "liposome pelleting", "setting": "[4]", "value": "(SNX3, SNX7, SNX19, SNX17, SNX27, p40phox, PXK, and SNX16)"},
      {"measurement": "liposome pelleting", "setting": "[5]", "value": "exclusive interaction with liposomes containing PtdIns3P (SNX3"},
      {"measurement": "liposome pelleting", "setting": "[6]", "value": "(SNX3, SNX7, SNX19, SNX17, SNX27, p40phox, PXK, and SNX16)"},
      {"measurement": "liposome pelleting", "setting": "[7]", "value": "exclusive interaction with liposomes containing PtdIns3P (SNX3, SNX7, SNX19"},
      {"measurement": "liposome pelleting", "setting": "[8]", "value": "(SNX3, SNX7, SNX19, SNX17, SNX27, p40phox, PXK, and SNX16)"}
    ]}
  ]
}
